Measured values reported in patent US11858941B2, “Heterocyclic and heteroaryl compounds for treating Huntington's disease” (PTC THERAPEUTICS, INC., priority 2018, dated 2024).

tested on: Endogenous Huntingtin Protein; experiment: Endogenous Huntingtin Protein Assay (Meso Scale Discovery ELISA-based electrochemiluminescence); assay type: cell-based; settings: MSD plates coated with MW1 (expanded polyglutamine) or MAB2166 capture antibody; lysates
In short: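 MSD electrochemiluminescence sandwich ELISA: MW1 (expanded polyQ) or MAB2166 capture antibody at 1 μg/mL, samples incubated overnight at 4° C. Detection with rabbit monoclonal #5656S then SULFO-TAG anti-rabbit antibody, each 0.25 μg/mL for 1 h at room temperature.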

| SMILES | IC50 [nM] |
| --- | --- |
| CC1(C)CC(n2nnc3cc(-c4ccc(-c5c[nH]nc5Br)cc4O)nnc32)CC(C)(C)N1 [Cpd 137, 5-(3-bromo-1H-pyrazol-4-yl)-2-[3-(2,2,6,6-tetramethylpiperidin-4-yl)-3H-[1,2,3]triazolo[4,5-c]pyridazin-6-yl]phenol] | ≤ 100 |
| Cn1cc(-c2ccc(-c3cc4nnn(C5CC(C)(C)NC(C)(C)C5)c4nn3)c(O)c2)nn1 [Cpd 138, 5-(1-methyl-1H-1,2,3-triazol-4-yl)-2-[3-(2,2,6,6-tetramethylpiperidin-4-yl)-3H-[1,2,3]triazolo[4,5-c]pyridazin-6-yl]phenol] | 100 to 500 |
| CC1(C)CC(n2nnc3cc(-c4ccc(-c5c[nH]nc5C(F)(F)F)cc4O)nnc32)CC(C)(C)N1 [Cpd 139, 2-[3-(2,2,6,6-tetramethylpiperidin-4-yl)-3H-[1,2,3]triazolo[4,5-c]pyridazin-6-yl]-5-[3-(trifluoromethyl)-1H-pyrazol-4-yl]phenol] | 100 to 500 |
| CC1(C)CC(n2nnc3cc(-c4ncc(-c5cn[nH]c5)cc4O)nnc32)CC(C)(C)N1 [Cpd 140, 5-(1H-pyrazol-4-yl)-2-[3-(2,2,6,6-tetramethylpiperidin-4-yl)-3H-[1,2,3]triazolo[4,5-c]pyridazin-6-yl]pyridin-3-ol] | ≤ 100 |
| CC1(C)CC(n2cnc3cc(-c4ncc(-c5cn[nH]c5)cc4O)nnc32)CC(C)(C)N1 [Cpd 141, 5-(1H-pyrazol-4-yl)-2-[7-(2,2,6,6-tetramethylpiperidin-4-yl)-7H-imidazo[4,5-c]pyridazin-3-yl]pyridin-3-ol] | ≤ 100 |
| CC1(C)CC(n2nnc3cc(-c4ccc(-c5cn6ccnc6cn5)cc4O)nnc32)CC(C)(C)N1 [Cpd 142, 5-(imidazo[1,2-a]pyrazin-6-yl)-2-[3-(2,2,6,6-tetramethylpiperidin-4-yl)-3H-[1,2,3]triazolo[4,5-c]pyridazin-6-yl]phenol] | ≤ 100 |
| CC1(C)CC(n2nnc3cc(-c4ccc(-n5cnc(F)c5)cc4O)nnc32)CC(C)(C)N1 [Cpd 143, 5-(4-fluoro-1H-imidazol-1-yl)-2-[3-(2,2,6,6-tetramethylpiperidin-4-yl)-3H-[1,2,3]triazolo[4,5-c]pyridazin-6-yl]phenol] | ≤ 100 |
| Cc1cn(-c2ccc(-c3cc4nnn(C5CC(C)(C)NC(C)(C)C5)c4nn3)c(O)c2)cn1 [Cpd 144, 5-(4-methyl-1H-imidazol-1-yl)-2-[3-(2,2,6,6-tetramethylpiperidin-4-yl)-3H-[1,2,3]triazolo[4,5-c]pyridazin-6-yl]phenol] | ≤ 100 |
| CC1(C)CC(n2nnc3cc(-c4ccc(-c5cnc6nn[nH]c6c5)cc4O)nnc32)CC(C)(C)N1 [Cpd 145, 2-[3-(2,2,6,6-tetramethylpiperidin-4-yl)-3H-[1,2,3]triazolo[4,5-c]pyridazin-6-yl]-5-(1H-[1,2,3]triazolo[4,5-b]pyridin-6-yl)phenol] | 1000 to 3000 |
| CC1(C)CC(n2nnc3cc(-c4ccc(-c5cc6nn[nH]c6cn5)cc4O)nnc32)CC(C)(C)N1 [Cpd 146, 2-[3-(2,2,6,6-tetramethylpiperidin-4-yl)-3H-[1,2,3]triazolo[4,5-c]pyridazin-6-yl]-5-(3H-[1,2,3]triazolo[4,5-c]pyridin-6-yl)phenol] | 1000 to 3000 |
| CC1(C)CC(n2nnc3cc(-c4ccc(-c5ccc6[nH]nnc6n5)cc4O)nnc32)CC(C)(C)N1 [Cpd 147, 2-[3-(2,2,6,6-tetramethylpiperidin-4-yl)-3H-[1,2,3]triazolo[4,5-c]pyridazin-6-yl]-5-(1H-[1,2,3]triazolo[4,5-b]pyridin-5-yl)phenol] | 1000 to 3000 |
| Cn1cc(-c2ccc(-c3cc4cnn(C5CC(C)(C)NC(C)(C)C5)c4nn3)c(O)c2)c(F)n1 [Cpd 148] | ≤ 100 |
| Cc1cn(-c2ccc(-c3cc4nnn(C5CC(C)(C)NC(C)(C)C5)c4nn3)c(O)c2)c(C)n1 [Cpd 149, 5-(2,4-dimethyl-1H-imidazol-1-yl)-2-[3-(2,2,6,6-tetramethylpiperidin-4-yl)-3H-[1,2,3]triazolo[4,5-c]pyridazin-6-yl]phenol] | 1000 to 3000 |
| Cc1ncc(-c2ccc(-c3cc4nnn(C5CC(C)(C)NC(C)(C)C5)c4nn3)c(O)c2)s1 [Cpd 150, 5-(2-methyl-1,3-thiazol-5-yl)-2-[3-(2,2,6,6-tetramethylpiperidin-4-yl)-3H-[1,2,3]triazolo[4,5-c]pyridazin-6-yl]phenol] | ≤ 100 |
| Cn1ncc(-c2ccc(-c3cc4nnn(C5CC(C)(C)NC(C)(C)C5)c4nn3)c(O)c2)n1 [Cpd 151, 5-(2-methyl-2H-1,2,3-triazol-4-yl)-2-[3-(2,2,6,6-tetramethylpiperidin-4-yl)-3H-[1,2,3]triazolo[4,5-c]pyridazin-6-yl]phenol] | ≤ 100 |
| CC1(C)CC(n2nnc3cc(-c4ccc(-c5ccc6nncn6n5)cc4O)nnc32)CC(C)(C)N1 [Cpd 152, 2-[3-(2,2,6,6-tetramethylpiperidin-4-yl)-3H-[1,2,3]triazolo[4,5-c]pyridazin-6-yl]-5-([1,2,4]triazolo[4,3-b]pyridazin-6-yl)phenol] | 100 to 500 |
| Cc1nsc(-c2ccc(-c3cc4nnn(C5CC(C)(C)NC(C)(C)C5)c4nn3)c(O)c2)n1 [Cpd 153, 5-(3-methyl-1,2,4-thiadiazol-5-yl)-2-[3-(2,2,6,6-tetramethylpiperidin-4-yl)-3H-[1,2,3]triazolo[4,5-c]pyridazin-6-yl]phenol] | ≤ 100 |
| Cc1nc(F)c(-c2ccc(-c3cc4nnn(C5CC(C)(C)NC(C)(C)C5)c4nn3)c(O)c2)s1 [Cpd 154, 5-(4-fluoro-2-methyl-1,3-thiazol-5-yl)-2-[3-(2,2,6,6-tetramethylpiperidin-4-yl)-3H-[1,2,3]triazolo[4,5-c]pyridazin-6-yl]phenol] | ≤ 100 |
| Cc1ccnn1-c1ccc(-c2cc3nnn(C4CC(C)(C)NC(C)(C)C4)c3nn2)c(O)c1 [Cpd 155, 5-(5-methyl-1H-pyrazol-1-yl)-2-[3-(2,2,6,6-tetramethylpiperidin-4-yl)-3H-[1,2,3]triazolo[4,5-c]pyridazin-6-yl]phenol] | 3000 to 9000 |
| Cc1cnn(-c2ccc(-c3cc4nnn(C5CC(C)(C)NC(C)(C)C5)c4nn3)c(O)c2)c1 [Cpd 156, 5-(4-methyl-1H-pyrazol-1-yl)-2-(3-(2,2,6,6-tetramethylpiperidin-4-yl)-3H-[1,2,3]triazolo[4,5-c]pyridazin-6-yl)phenol] | 100 to 500 |
| Cc1ccn(-c2ccc(-c3cc4nnn(C5CC(C)(C)NC(C)(C)C5)c4nn3)c(O)c2)n1 [Cpd 157, 5-(3-methyl-1H-pyrazol-1-yl)-2-(3-(2,2,6,6-tetramethylpiperidin-4-yl)-3H-[1,2,3]triazolo[4,5-c]pyridazin-6-yl)phenol] | 100 to 500 |

Second part, the molecule after the results:

| IC50 [nM] | SMILES |
| --- | --- |
| ≤ 100 | Cc1ncc(-c2ccc(-c3cc4nnn(C5CC(C)(C)NC(C)(C)C5)c4nn3)c(O)c2)o1 [Cpd 158, 5-(2-methyl-1,3-oxazol-5-yl)-2-[3-(2,2,6,6-tetramethylpiperidin-4-yl)-3H-[1,2,3]triazolo[4,5-c]pyridazin-6-yl]phenol] |
| ≤ 100 | COc1ncnc(-c2ccc(-c3cc4nnn(C5CC(C)(C)NC(C)(C)C5)c4nn3)c(O)c2)n1 [Cpd 159, 5-(4-methoxy-1,3,5-triazin-2-yl)-2-(3-(2,2,6,6-tetramethylpiperidin-4-yl)-3H-[1,2,3]triazolo[4,5-c]pyridazin-6-yl)phenol] |
| 100 to 500 | CC1(C)CC(n2nnc3cc(-c4ccc(-c5cnc6nccn6c5)cc4O)nnc32)CC(C)(C)N1 [Cpd 160, 5-(imidazo[1,2-a]pyrimidin-6-yl)-2-(3-(2,2,6,6-tetramethylpiperidin-4-yl)-3H-[1,2,3]triazolo[4,5-c]pyridazin-6-yl)phenol] |
| ≤ 100 | CC1(C)CC(n2ncc3cc(-c4ccc(-c5c[nH]nc5F)cc4O)nnc32)CC(C)(C)N1 [Cpd 161, 5-(3-fluoro-1H-pyrazol-4-yl)-2-(1-(2,2,6,6-tetramethylpiperidin-4-yl)-1H-pyrazolo[3,4-c]pyridazin-5-yl)phenol] |
| ≤ 100 | CC1(C)CC(n2nnc3cc(-c4ccc(-c5ccc6nccn6n5)cc4O)nnc32)CC(C)(C)N1 [Cpd 162, 5-(imidazo[1,2-b]pyridazin-6-yl)-2-(3-(2,2,6,6-tetramethylpiperidin-4-yl)-3H-[1,2,3]triazolo[4,5-c]pyridazin-6-yl)phenol] |
| ≤ 100 | CC1(C)CC(n2nnc3cc(-c4ccc(-n5nccn5)cc4O)nnc32)CC(C)(C)N1 [Cpd 163, 2-[3-(2,2,6,6-tetramethylpiperidin-4-yl)-3H-[1,2,3]triazolo[4,5-c]pyridazin-6-yl]-5-(2H-1,2,3-triazol-2-yl)phenol] |
| ≤ 100 | CC1(C)C[C@H](n2nnc3cc(-c4ccc(-c5cn[nH]c5)cc4O)nnc32)[C@H](F)C(C)(C)N1 [Cpd 164, 2-{3-[(3S,4S)-3-fluoro-2,2,6,6-tetramethylpiperidin-4-yl]-3H-[1,2,3]triazolo[4,5-c]pyridazin-6-yl}-5-(1H-pyrazol-4-yl)phenol] |
| ≤ 100 | CC1(C)CC(n2ncc3cc(-c4ccc(-c5ccncc5)cc4O)nnc32)CC(C)(C)N1 [Cpd 165, 5-(pyridin-4-yl)-2-[1-(2,2,6,6-tetramethylpiperidin-4-yl)-1H-pyrazolo[3,4-c]pyridazin-5-yl]phenol] |
| 100 to 500 | CC1(C)CC(n2ncc3cc(-c4ccc(-c5cccnc5)cc4O)nnc32)CC(C)(C)N1 [Cpd 166, 5-(pyridin-3-yl)-2-[1-(2,2,6,6-tetramethylpiperidin-4-yl)-1H-pyrazolo[3,4-c]pyridazin-5-yl]phenol] |
| 1000 to 3000 | CC1(C)CC(n2ncc3cc(-c4ccc(-c5cncnc5)cc4O)nnc32)CC(C)(C)N1 [Cpd 167, 5-(pyrimidin-5-yl)-2-[1-(2,2,6,6-tetramethylpiperidin-4-yl)-1H-pyrazolo[3,4-c]pyridazin-5-yl]phenol] |
| ≤ 100 | CC1(C)C[C@@H](n2nnc3cc(-c4ccc(-c5cn[nH]c5)cc4O)nnc32)[C@H](F)C(C)(C)N1 [Cpd 168, 2-{3-[(3S,4R)-3-fluoro-2,2,6,6-tetramethylpiperidin-4-yl]-3H-[1,2,3]triazolo[4,5-c]pyridazin-6-yl}-5-(1H-pyrazol-4-yl)phenol] |
| ≤ 100 | Cn1ccc(-c2ccc(-c3cc4cnn(C5CC(C)(C)NC(C)(C)C5)c4nn3)c(O)c2)n1 [Cpd 169, 5-(1-methyl-1H-pyrazol-3-yl)-2-[1-(2,2,6,6-tetramethylpiperidin-4-yl)-1H-pyrazolo[3,4-c]pyridazin-5-yl]phenol] |
